Measurements published in patent publication US11214594B2, “Antimicrobial peptide having synergistic antibacterial effect with antibiotics on multidrug resistant bacteria, and use thereof” (priority 2016, dated 2022).
Converted amounts (≈) assume the structure as drawn. Read-outs that look alike come from different tables or passages of the source. Where a SMILES comes first, the peptide text is derived from it.

Columns and labels:
MDRAB 12035 [1] = test: MIC of antimicrobial peptide during combined treatment with antibiotic; format: cell-based, Acinetobacter baumannii
How it was run: (§1)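 Antibiotic MIC came from antibiotic dilutions added to bacteria (2×10^6 CFU/ml, MH medium) already combined with peptide serially diluted 2:1 from its own MIC. Swapping the roles of the two agents gave the peptide MIC.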

A. baumannii [2] = test: as above; format: cell-based, Acinetobacter baumannii
How it was run: as §1

B. subtilis = test: microbe, parasite or virus in culture; format: cell-based, Bacillus subtilis
How it was run: (§2)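 Broth microdilution in MH medium: bacterial strains diluted to 2×10^6 CFU were mixed with equal volumes of peptide serially diluted twofold in MH medium.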

E. coli [3] = test: MIC of antibiotic during combined treatment with antimicrobial peptide; format: cell-based, Escherichia coli; details: for Antibiotic MIC, Erythromycin / Antibiotic MIC, Linezolid / Antibiotic MIC, Vancomycin: E. coli
How it was run: (§3)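 MIC values for mixed peptide plus antibiotic solutions were measured in MH medium.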

E. coli [4] = test: microbe, parasite or virus in culture; format: cell-based, Escherichia coli
How it was run: as §2

MDREC 1229 [5] = test: microbe, parasite or virus in culture; format: cell-based, Escherichia coli
How it was run: as §2

S. aureus = test: microbe, parasite or virus in culture; format: cell-based, Staphylococcus aureus
How it was run: as §2

MDRAB 12035 [6] = test: microbe, parasite or virus in culture; format: cell-based, Acinetobacter baumannii
How it was run: as §2

A. baumannii [7] = test: microbe, parasite or virus in culture; format: cell-based, Acinetobacter baumannii
How it was run: as §2

E. coli [8] = format: cell-based, Escherichia coli; details: E. coli
How it was run: as §1

MDREC 1229 [9] = format: cell-based, Escherichia coli
How it was run: as §1

MDRST 8009 = format: cell-based, Salmonella typhimurium; details: agent alone
How it was run: as §2

P. aeruginosa = test: microbe, parasite or virus in culture; format: cell-based, Pseudomonas aeruginosa
How it was run: as §2

S. epidermidis = test: microbe, parasite or virus in culture; format: cell-based, Staphylococcus epidermidis
How it was run: as §2

A. baumannii [10] = test: MIC of antibiotic during combined treatment with antimicrobial peptide; format: cell-based, Acinetobacter baumannii; details: for Antibiotic MIC, Erythromycin / Antibiotic MIC, Linezolid / Antibiotic MIC, Vancomycin: A. baumannii
How it was run: as §3

[11] = erythromycin 4 μg/ml (Conc./MIC 1/8)
[12] = erythromycin 8 μg/ml (Conc./MIC 1/4)
[13] = erythromycin 16 μg/ml (Conc./MIC 1/2)
[14] = erythromycin 32 μg/ml (Conc./MIC 1)
[15] = vancomycin 512 μg/ml (Conc./MIC 1/2)
[16] = vancomycin 1024 μg/ml (Conc./MIC 1)
[17] = with Erythromycin […] (Conc./MIC 1)
[18] = combined with peptide at 1 μg/ml
[19] = combined with peptide at 2 μg/ml
[20] = combined with peptide at 4 μg/ml
[21] = combined with peptide at 6 μg/ml
[22] = combined with peptide at 8 μg/ml
[23] = combined with peptide at 16 μg/ml
[24] = combined with peptide at 32 μg/ml
[25] = combined with peptide at 64 μg/ml

For `CC[C@H](C)[C@H](NC(=O)[C@H](CCCCN)NC(=O)[C@H](Cc1c[nH]c2ccccc12)NC(=O)[C@@H](N)CCCNC(=N)N)C(=O)N[C@@H](Cc1ccccc1)C(=O)N[C@@H](CCCCN)C(=O)N[C@@H](CCCCN)C(=O)N[C@H](C(=O)N1CCC[C@H]1C(=O)N[C@@H](CCCCN)C(=O)N[C@@H](CC(C)C)C(=O)N[C@@H](CC(C)C)C(=O)N[C@@H](Cc1c[nH]cn1)C(=O)N[C@@H](CO)C(=O)N[C@@H](CC(C)C)C(=O)N[C@@H](CCCCN)C(=O)N[C@@H](CCCCN)C(=O)N[C@@H](Cc1c[nH]c2ccccc12)C(N)=O)[C@@H](C)CC` [PapMA-10, RWK IFK KIP KLL HSL KKW-NH2] (H-RWKIFKKIPKLLHSLKKW-NH2; N-terminus assumed), the “Peptide MIC during treatment with erythromycin” value (MDRAB 12035 [1]; [11]) was 16 µg/mL, the “Peptide MIC during treatment with erythromycin” value (MDRAB 12035 [1]; [12]) was 8 µg/mL and the “Peptide MIC during treatment with erythromycin” value (MDRAB 12035 [1]; [13]) was 4 µg/mL. The “Peptide MIC during treatment with erythromycin” value (MDRAB 12035 [1]; [14]) was 0 µg/mL, the “Peptide MIC during treatment with linezolid” value (MDRAB 12035 [1]; linezolid 64 μg/ml (Conc./MIC 1/8)) was 4 µg/mL and the “Peptide MIC during treatment with linezolid” value (MDRAB 12035 [1]; linezolid 512 μg/ml (Conc./MIC 1)) was 0 µg/mL. For the same molecule, the “Peptide MIC during treatment with linezolid” value (MDRAB 12035 [1]; linezolid […] (Conc./MIC 1/2)) was 2 µg/mL, the “Peptide MIC during treatment with linezolid” value (MDRAB 12035 [1]; linezolid […] (Conc./MIC 1/4)) was 2 µg/mL and the “Peptide MIC during treatment with vancomycin” value (MDRAB 12035 [1]; [15]) was 2 µg/mL. The “Peptide MIC during treatment with vancomycin” value (MDRAB 12035 [1]; [16]) was 1 µg/mL, the “Peptide MIC during treatment with vancomycin” value (MDRAB 12035 [1]; vancomycin […] (Conc./MIC 1/4)) was 4 µg/mL and the “Peptide MIC during treatment with vancomycin” value (MDRAB 12035 [1]; vancomycin […] (Conc./MIC 1/8)) was 4 µg/mL. For the same molecule, the “Peptide MIC during treatment with antibiotic” value (A. baumannii [2]; [11]) was 8 µg/mL, the “Peptide MIC during treatment with antibiotic” value (A. baumannii [2]; [12]) was 4 µg/mL and the “Peptide MIC during treatment with antibiotic” value (A. baumannii [2]; [13]) was 2 µg/mL. For the same molecule, the “Peptide MIC during treatment with antibiotic” value (A. baumannii [2]; [14]) was 0 µg/mL, the “Peptide MIC during treatment with antibiotic” value (A. baumannii [2]; linezolid 32 μg/ml (Conc./MIC 1/8)) was 8 µg/mL and the “Peptide MIC during treatment with antibiotic” value (A. baumannii [2]; linezolid 64 μg/ml (Conc./MIC 1/4)) was 4 µg/mL. For the same molecule, the “Peptide MIC during treatment with antibiotic” value (A. baumannii [2]; linezolid […] (Conc./MIC 1)) was 0 µg/mL, the “Peptide MIC during treatment with antibiotic” value (A. baumannii [2]; linezolid […] (Conc./MIC 1/2)) was 4 µg/mL and the “Peptide MIC during treatment with antibiotic” value (A. baumannii [2]; [15]) was 1 µg/mL. The “Peptide MIC during treatment with antibiotic” value (A. baumannii [2]; [16]) was 0 µg/mL, the “Peptide MIC during treatment with antibiotic” value (A. baumannii [2]; vancomycin […] (Conc./MIC 1/4)) was 1 µg/mL and the “Peptide MIC during treatment with antibiotic” value (A. baumannii [2]; vancomycin […] (Conc./MIC 1/8)) was 4 µg/mL. The “Minimal inhibitory concentration MIC” value (B. subtilis) was greater than 128 µg/mL, the “Synergistic effect of antibacterial activity with existing antibiotics compared with PapMA-1” value (E. coli [3]; E. coli and MDREC1229) was “level similar to that of the PapMA-1 peptide” and the “Antibiotic MIC, Erythromycin” value (E. coli [3]; erythromycin combined with peptide at 1 μg/ml) was 128 µg/mL. The “Antibiotic MIC, Erythromycin” value (E. coli [3]; erythromycin combined with peptide at 2 μg/ml) was 64 µg/mL, the “Antibiotic MIC, Erythromycin” value (E. coli [3]; erythromycin combined with peptide at 4 μg/ml) was 32 µg/mL and the “Antibiotic MIC, Erythromycin” value (E. coli [3]; erythromycin combined with peptide at 6 μg/ml) was 8 µg/mL. The “Antibiotic MIC, Erythromycin” value (E. coli [3]; erythromycin combined with peptide at 8 μg/ml) was 0.5 µg/mL, the “Antibiotic MIC, Erythromycin” value (E. coli [3]; erythromycin combined with peptide at 16 μg/ml) was 0.25 µg/mL and the “Antibiotic MIC, Erythromycin” value (E. coli [3]; erythromycin combined with peptide at 32 μg/ml) was 0 µg/mL. The “Antibiotic MIC, Erythromycin” value (E. coli [3]; erythromycin combined with peptide at 64 μg/ml) was 0 µg/mL, the “Antibiotic MIC, Linezolid” value (E. coli [3]; linezolid combined with peptide at 1 μg/ml) was greater than 128 µg/mL and the “Antibiotic MIC, Linezolid” value (E. coli [3]; linezolid combined with peptide at 2 μg/ml) was greater than 128 µg/mL. The “Antibiotic MIC, Linezolid” value (E. coli [3]; linezolid combined with peptide at 4 μg/ml) was 128 µg/mL, the “Antibiotic MIC, Linezolid” value (E. coli [3]; linezolid combined with peptide at 6 μg/ml) was 64 µg/mL and the “Antibiotic MIC, Linezolid” value (E. coli [3]; linezolid combined with peptide at 8 μg/ml) was 8 µg/mL. The “Antibiotic MIC, Linezolid” value (E. coli [3]; linezolid combined with peptide at 16 μg/ml) was 4 µg/mL, the “Antibiotic MIC, Linezolid” value (E. coli [3]; linezolid combined with peptide at 32 μg/ml) was 0 µg/mL and the “Antibiotic MIC, Linezolid” value (E. coli [3]; linezolid combined with peptide at 64 μg/ml) was 0 µg/mL. The “Antibiotic MIC, Vancomycin” value (E. coli [3]; vancomycin combined with peptide at 1 μg/ml) was greater than 128 µg/mL, the “Antibiotic MIC, Vancomycin” value (E. coli [3]; vancomycin combined with peptide at 2 μg/ml) was greater than 128 µg/mL and the “Antibiotic MIC, Vancomycin” value (E. coli [3]; vancomycin combined with peptide at 4 μg/ml) was 64 µg/mL. For the same molecule, the “Antibiotic MIC, Vancomycin” value (E. coli [3]; vancomycin combined with peptide at 6 μg/ml) was 32 µg/mL, the “Antibiotic MIC, Vancomycin” value (E. coli [3]; vancomycin combined with peptide at 8 μg/ml) was 16 µg/mL and the “Antibiotic MIC, Vancomycin” value (E. coli [3]; vancomycin combined with peptide at 16 μg/ml) was 2 µg/mL. For the same molecule, the “Antibiotic MIC, Vancomycin” value (E. coli [3]; vancomycin combined with peptide at 32 μg/ml) was 0 µg/mL, the “Antibiotic MIC, Vancomycin” value (E. coli [3]; vancomycin combined with peptide at 64 μg/ml) was 0 µg/mL and the “Minimal inhibitory concentration MIC” value (E. coli [4]; 16 h) was 32 µg/mL (≈ 13.6 µM). For the same molecule, the “Antibacterial activity relative to PapMA-1” value (E. coli [4]; E. coli) was “at least twice as high”, the “Minimal inhibitory concentration MIC” value (MDREC 1229 [5]) was 64 µg/mL (≈ 27.2 µM) and the “Minimal inhibitory concentration MIC” value (S. aureus) was greater than 128 µg/mL. For the same molecule, the “Minimal inhibitory concentration MIC” value (MDRAB 12035 [6]) was 32 µg/mL (≈ 13.6 µM), the “Peptide MIC, peptide alone” value (MDRAB 12035 [6]) was 32 µg/mL and the “Minimal inhibitory concentration MIC” value (A. baumannii [7]) was 16 µg/mL (≈ 6.81 µM). For the same molecule, the “Peptide MIC, peptide alone” value (A. baumannii [7]) was 16 µg/mL, the “Peptide MIC” value (E. coli [8]; [17]) was 0 µg/mL and the “Peptide MIC” value (E. coli [8]; with Linezolid […] (Conc./MIC 1)) was 0 µg/mL. For the same molecule, the “Peptide MIC” value (E. coli [8]; with Vancomycin 1024 μg/ml (Conc./MIC 1)) was 0 µg/mL, the “Peptide MIC” value (MDREC 1229 [9]; [17]) was 0 µg/mL and the “Peptide MIC” value (MDREC 1229 [9]; with Linezolid 512 μg/ml (Conc./MIC 1)) was 0 µg/mL. The “Minimal inhibitory concentration MIC” value (MDRST 8009) was 32 µg/mL (≈ 13.6 µM), the “Minimal inhibitory concentration MIC” value (P. aeruginosa) was 8 µg/mL (≈ 3.41 µM) and the “Minimal inhibitory concentration MIC” value (S. epidermidis) was greater than 128 µg/mL. The “Synergistic effect of antibacterial activity with existing antibiotics compared with PapMA-1” value (A. baumannii [10]; A. baumannii and MDRAB 12035) was “level similar to that of PapMA-1 peptide”, the “Antibiotic MIC, Erythromycin” value (A. baumannii [10]; [18]) was 32 µg/mL and the “Antibiotic MIC, Linezolid” value (A. baumannii [10]; [18]) was greater than 128 µg/mL. The “Antibiotic MIC, Vancomycin” value (A. baumannii [10]; [18]) was greater than 128 µg/mL, the “Antibiotic MIC, Erythromycin” value (A. baumannii [10]; [19]) was 16 µg/mL and the “Antibiotic MIC, Linezolid” value (A. baumannii [10]; [19]) was 128 µg/mL. The “Antibiotic MIC, Vancomycin” value (A. baumannii [10]; [19]) was 64 µg/mL, the “Antibiotic MIC, Erythromycin” value (A. baumannii [10]; [20]) was 8 µg/mL and the “Antibiotic MIC, Linezolid” value (A. baumannii [10]; [20]) was 64 µg/mL. The “Antibiotic MIC, Vancomycin” value (A. baumannii [10]; [20]) was 16 µg/mL, the “Antibiotic MIC, Erythromycin” value (A. baumannii [10]; [21]) was 2 µg/mL and the “Antibiotic MIC, Linezolid” value (A. baumannii [10]; [21]) was 32 µg/mL. The “Antibiotic MIC, Vancomycin” value (A. baumannii [10]; [21]) was 16 µg/mL, the “Antibiotic MIC, Erythromycin” value (A. baumannii [10]; [22]) was 0.5 µg/mL and the “Antibiotic MIC, Linezolid” value (A. baumannii [10]; [22]) was 8 µg/mL. The “Antibiotic MIC, Vancomycin” value (A. baumannii [10]; [22]) was 4 µg/mL, the “Antibiotic MIC, Erythromycin” value (A. baumannii [10]; [23]) was 0 µg/mL and the “Antibiotic MIC, Linezolid” value (A. baumannii [10]; [23]) was 0 µg/mL. For the same molecule, the “Antibiotic MIC, Vancomycin” value (A. baumannii [10]; [23]) was 0 µg/mL, the “Antibiotic MIC, Erythromycin” value (A. baumannii [10]; [24]) was 0 µg/mL and the “Antibiotic MIC, Linezolid” value (A. baumannii [10]; [24]) was 0 µg/mL. The “Antibiotic MIC, Vancomycin” value (A. baumannii [10]; [24]) was 0 µg/mL, the “Antibiotic MIC, Erythromycin” value (A. baumannii [10]; [25]) was 0 µg/mL and the “Antibiotic MIC, Linezolid” value (A. baumannii [10]; [25]) was 0 µg/mL. The “Antibiotic MIC, Vancomycin” value (A. baumannii [10]; [25]) was 0 µg/mL.
